Calls of active or inactive are those of the source. No rule for the calls is given here.

The data set has as its system CCRIS mutagenicity, Ames/micronucleus/aberration tests. Put plainly: CCRIS mutagenicity studies.
Setting [1] is: Test System: AMES SALMONELLA TYPHIMURIUM, Strain/Indicator: TA100, Metabolic Activation: RAT, LIVER, S-9, AROCLOR 1254, Method: STANDARD PLATE.
The mark [2] stands for this setting: Test System: AMES SALMONELLA TYPHIMURIUM, Strain/Indicator: TA100, Metabolic Activation: NONE, Method: PREINCUBATION

With `OC[C@@H](O)[C@@H](O)[C@H](O)[C@@H](O)CO`, the mutagenic call is, setting by setting: (End Point: IN VITRO CHROMOSOMAL ABERRATIONS, Test System: CHO-WBL CELLS, Metabolic Activation: NONE) “active; positive (structural changes); osmolality of solution decisive factor”; (Test System: AMES SALMONELLA TYPHIMURIUM, Strain/Indicator: TA97A, Metabolic Activation: NONE, Method: PREINCUBATION) “inactive; negative”; (Test System: AMES SALMONELLA TYPHIMURIUM, Strain/Indicator: TA97A, Metabolic Activation: RAT, LIVER, S-9, AROCLOR 1254, Method: PREINCUBATION) “inactive; negative”; (Test System: AMES SALMONELLA TYPHIMURIUM, Strain/Indicator: TA102, Metabolic Activation: NONE, Method: PREINCUBATION) “inactive; negative”; (Test System: AMES SALMONELLA TYPHIMURIUM, Strain/Indicator: TA102, Metabolic Activation: RAT, LIVER, S-9, AROCLOR 1254, Method: PREINCUBATION) “inactive; negative”.
With `ClCC(Cl)(Cl)Cl`, the mutagenic call was “active; positive (ploidy)” (End Point: IN VITRO CHROMOSOMAL ABERRATIONS, Test System: CHINESE HAMSTER LUNG FIBROBLAST CELLS (CHL/IU), Metabolic Activation: RAT, LIVER, S-9, PHENOBARBITAL AND 5,6-BENZOFLAVONE); “inactive; negative; precipitation occurred at all doses” (End Point: IN VITRO CHROMOSOMAL ABERRATIONS, Test System: CHINESE HAMSTER OVARY CELLS, Metabolic Activation: NONE); “inactive; negative; precipitation occurred at all doses” (End Point: IN VITRO CHROMOSOMAL ABERRATIONS, Test System: CHINESE HAMSTER OVARY CELLS, Metabolic Activation: RAT, LIVER, S-9, AROCLOR 1254); “inactive; negative” (Test System: AMES SALMONELLA TYPHIMURIUM, Strain/Indicator: TA97, Metabolic Activation: NONE, Method: STANDARD PLATE); “active; positive” (Test System: AMES SALMONELLA TYPHIMURIUM, Strain/Indicator: TA97, Metabolic Activation: RAT, LIVER, S-9, AROCLOR 1254, Method: STANDARD PLATE); “active; positive” (Test System: AMES SALMONELLA TYPHIMURIUM, Strain/Indicator: TA98, Metabolic Activation: NONE, Method: STANDARD PLATE). Further, the mutagenic call was “active; positive” (Test System: AMES SALMONELLA TYPHIMURIUM, Strain/Indicator: TA98, Metabolic Activation: RAT, LIVER, S-9, AROCLOR 1254, Method: STANDARD PLATE); “active; positive” (Test System: AMES SALMONELLA TYPHIMURIUM, Strain/Indicator: TA100, Metabolic Activation: NONE, Method: STANDARD PLATE); “active; positive” under setting [1]; “inactive; negative” (Test System: AMES SALMONELLA TYPHIMURIUM, Strain/Indicator: TA104, Metabolic Activation: NONE, Method: STANDARD PLATE); “active; positive” (Test System: AMES SALMONELLA TYPHIMURIUM, Strain/Indicator: TA104, Metabolic Activation: RAT, LIVER, S-9, AROCLOR 1254, Method: STANDARD PLATE).
As to `O=c1c2ccccc2c(=O)c2c1ccc1c3ccc4c(=O)c5c(ccc6c7ccc8c(=O)c9ccccc9c(=O)c8c7[nH]c65)c(=O)c4c3[nH]c12`, the mutagenic call runs as follows: (Test System: Ames Salmonella typhimurium, Strain/Indicator: TA98, Metabolic Activation: None, Method: Preincubation) “active; positive”; (Test System: Ames Salmonella typhimurium, Strain/Indicator: TA100, Metabolic Activation: None, Method: Preincubation) “inactive; negative”; (Test System: Ames Salmonella typhimurium, Strain/Indicator: TA102, Metabolic Activation: None, Method: Preincubation) “inactive; negative”; (Test System: Ames Salmonella typhimurium, Strain/Indicator: TA1535, Metabolic Activation: None, Method: Preincubation) “inactive; negative”.
With `Cc1ccc2nc3c(ccc4ccccc43)c(CO)c2c1`, the mutagenic call under setting [1] was “active; positive”.
Turning to `[N-]=[N+]=NCC[C@H](N)C(=O)O`, the mutagenic call (Test System: AMES SALMONELLA TYPHIMURIUM, Strain/Indicator: TA1530, Metabolic Activation: NONE, Method: STANDARD PLATE) was “active; positive”.
As to `Nc1[nH]c(=O)nc2c1ncn2[C@@H]1O[C@H](CO)[C@@H](O)[C@H]1O`, the mutagenic call under setting [2] is “inactive; negative”.
Regarding `CNC(=O)ON=CC(C)(C)SC`, the mutagenic call reads like this: (End Point: IN VIVO CHROMOSOMAL ABERRATIONS, Test System: BONE MARROW CELLS, Species: RAT, Strain/Sex: MALE, Route: ORAL (GAVAGE)) “active; positive (structural and ploidy changes)”; (End Point: IN VIVO MICRONUCLEUS, Test System: BONE MARROW POLYCHROMATIC ERYTHROCYTES, Species: RAT, Strain/Sex: MALE, Route: ORAL (GAVAGE)) “active; positive”; (Test System: AMES SALMONELLA TYPHIMURIUM, Strain/Indicator: TA97, Metabolic Activation: HAMSTER, LIVER, S-9, AROCLOR 1254 (10 OR 30%), Method: PREINCUBATION) “inactive; negative”; (Test System: AMES SALMONELLA TYPHIMURIUM, Strain/Indicator: TA97, Metabolic Activation: NONE, Method: PREINCUBATION) “inactive; negative”; (Test System: AMES SALMONELLA TYPHIMURIUM, Strain/Indicator: TA97, Metabolic Activation: RAT, LIVER, S-9, AROCLOR 1254 (10 OR 30%), Method: PREINCUBATION) “inactive; negative”; (Test System: AMES SALMONELLA TYPHIMURIUM, Strain/Indicator: TA98, Metabolic Activation: HAMSTER, LIVER, S-9, AROCLOR 1254 (10 OR 30%), Method: PREINCUBATION) “inactive; negative”. Further, the mutagenic call is, setting by setting: (Test System: AMES SALMONELLA TYPHIMURIUM, Strain/Indicator: TA98, Metabolic Activation: NONE, Method: PREINCUBATION) “inactive; negative”; (Test System: AMES SALMONELLA TYPHIMURIUM, Strain/Indicator: TA98, Metabolic Activation: RAT, LIVER, S-9, AROCLOR 1254 (10 OR 30%), Method: PREINCUBATION) “inactive; negative”; (Test System: AMES SALMONELLA TYPHIMURIUM, Strain/Indicator: TA100, Metabolic Activation: HAMSTER, LIVER, S-9, AROCLOR 1254 (10 OR 30%), Method: PREINCUBATION) “inactive; negative”; under setting [2], “inactive; negative”; (Test System: AMES SALMONELLA TYPHIMURIUM, Strain/Indicator: TA100, Metabolic Activation: RAT, LIVER, S-9, AROCLOR 1254 (10 OR 30%), Method: PREINCUBATION) “inactive; negative”; (Test System: AMES SALMONELLA TYPHIMURIUM, Strain/Indicator: TA1535, Metabolic Activation: HAMSTER, LIVER, S-9, AROCLOR 1254 (10 OR 30%), Method: PREINCUBATION) “inactive; negative”. Further, the mutagenic call is, setting by setting: (Test System: AMES SALMONELLA TYPHIMURIUM, Strain/Indicator: TA1535, Metabolic Activation: NONE, Method: PREINCUBATION) “inactive; negative”; (Test System: AMES SALMONELLA TYPHIMURIUM, Strain/Indicator: TA1535, Metabolic Activation: RAT, LIVER, S-9, AROCLOR 1254 (10 OR 30%), Method: PREINCUBATION) “inactive; negative”; (Test System: AMES SALMONELLA TYPHIMURIUM, Strain/Indicator: TA1537, Metabolic Activation: HAMSTER, LIVER, S-9, AROCLOR 1254 (10 OR 30%), Method: PREINCUBATION) “inactive; negative”; (Test System: AMES SALMONELLA TYPHIMURIUM, Strain/Indicator: TA1537, Metabolic Activation: NONE, Method: PREINCUBATION) “inactive; negative”; (Test System: AMES SALMONELLA TYPHIMURIUM, Strain/Indicator: TA1537, Metabolic Activation: RAT, LIVER, S-9, AROCLOR 1254 (10 OR 30%), Method: PREINCUBATION) “inactive; negative”; (Test System: E. COLI, Strain/Indicator: WP2 UVRA, Metabolic Activation: HAMSTER, LIVER, S-9, AROCLOR 1254, Method: STANDARD PLATE) “inactive; negative”. Moreover, the mutagenic call by setting is: (Test System: E. COLI, Strain/Indicator: WP2 UVRA, Metabolic Activation: HAMSTER, LIVER, S-9, Method: STANDARD PLATE) “inactive; negative”; (Test System: E. COLI, Strain/Indicator: WP2 UVRA, Metabolic Activation: MOUSE, LIVER, S-9, AROCLOR 1254, Method: STANDARD PLATE) “inactive; negative”; (Test System: E. COLI, Strain/Indicator: WP2 UVRA, Metabolic Activation: MOUSE, LIVER, S-9, Method: STANDARD PLATE) “inactive; negative”; (Test System: E. COLI, Strain/Indicator: WP2 UVRA, Metabolic Activation: NONE, Method: STANDARD PLATE) “inactive; negative”; (Test System: E. COLI, Strain/Indicator: WP2 UVRA, Metabolic Activation: RAT, LIVER, S-9, AROCLOR 1254, Method: STANDARD PLATE) “inactive; negative”; (Test System: E. COLI, Strain/Indicator: WP2 UVRA, Metabolic Activation: RAT, LIVER, S-9, Method: STANDARD PLATE) “inactive; negative”. In addition, the mutagenic call reads like this: (Test System: MOUSE LYMPHOMA, Strain/Indicator: L5178Y (TK+/TK-), Metabolic Activation: NONE, Method: SUSPENSION/PLATE) “active; positive”; (Test System: MOUSE LYMPHOMA, Strain/Indicator: L5178Y (TK+/TK-), Metabolic Activation: RAT, LIVER, S-9, AROCLOR 1254, Method: SUSPENSION/PLATE) “active; positive”; (Test System: MOUSE LYMPHOMA, Strain/Indicator: L5178Y (TK+/TK-), Metabolic Activation: RAT, LIVER, S-9, Method: SUSPENSION/PLATE) “active; positive”.

The values are drawn from PubChem BioAssay AID1259407 (Chemical Carcinogenesis Research Information System (CCRIS), 2018).
